{"source": "paper PMC3851574", "about": "(Journal of structural biology, 2013)", "target": "T1, GCN4-Kar3Cik1 (Kar3Cik1) (Saccharomyces cerevisiae, UniProt P17119)", "T1 sequence (P17119 353-729)": "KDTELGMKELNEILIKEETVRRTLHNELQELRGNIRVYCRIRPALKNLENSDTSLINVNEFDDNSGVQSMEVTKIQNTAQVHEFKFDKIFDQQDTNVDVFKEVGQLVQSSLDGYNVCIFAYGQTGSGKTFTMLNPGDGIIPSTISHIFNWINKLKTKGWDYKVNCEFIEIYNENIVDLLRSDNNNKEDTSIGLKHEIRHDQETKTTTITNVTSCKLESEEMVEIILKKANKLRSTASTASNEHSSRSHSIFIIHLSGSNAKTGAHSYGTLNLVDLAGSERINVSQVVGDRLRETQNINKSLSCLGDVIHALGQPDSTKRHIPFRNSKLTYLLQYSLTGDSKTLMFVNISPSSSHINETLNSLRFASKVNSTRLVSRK", "T1 sequence (Q01649 344-594 partner)": "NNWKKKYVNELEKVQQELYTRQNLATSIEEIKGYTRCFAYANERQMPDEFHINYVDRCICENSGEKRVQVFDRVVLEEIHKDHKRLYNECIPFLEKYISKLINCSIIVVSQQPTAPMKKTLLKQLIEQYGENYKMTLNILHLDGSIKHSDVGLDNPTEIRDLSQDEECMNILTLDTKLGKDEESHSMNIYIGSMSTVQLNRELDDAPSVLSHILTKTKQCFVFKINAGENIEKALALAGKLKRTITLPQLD", "test": "cryo-EM and unidirectional metal shadowing of microtubule decoration", "assay_type": "binding", "conditions": "1 mM ADP; bovine brain microtubules; ATPase buffer pH 7.2"}
{"compound": "Nc1ncnc2c1ncn2[C@@H]1O[C@H](COP(=O)(O)OP(=O)(O)O)[C@@H](O)[C@H]1O", "note": "[ADP]", "values": [{"measurement": "cryo-EM and unidirectional metal shadowing of microtubule decoration", "value": "Excess ADP significantly lowered the microtubule-binding affinity of Kar3Cik1 in our experiments"}]}
